# Test results taken from patent US10752588B2 (The Broad Institute, Inc., priority 2014, dated 2020).
# Key:
# human D2R/β-arrestin [1] = biological target: T1, human D2R/β-arrestin (Homo sapiens (Human), UniProt P14416); assay: cell-based; conditions: cAMP Antagonist
# human D2R/β-arrestin [2] = biological target: T1, human D2R/β-arrestin; assay: β-Arrestin agonist assay (PathHunter); type: cell-based; conditions: CHO-K1 cell line expressing human D2R/β-arrestin
# Description: (§1) The assays can be performed using proper detection reagents either prepared using routine methods known in the art or commercially available (e.g., PathHunter® β-Arrestin Detecting Kit (DiscoveRX)). Cells are grown to the necessary confluence and then detached. The cells are then centrifuged, washed, resuspended, and seeded into a container (e.g., 384-well plate). The cells are incubated (e.g., at 37° C., 5% CO2) for the appropriate period of time (e.g., 24 hours), before various compounds (e.g., a compound of the invention or a control compound) are added to the cells. After incubation of the cells with the compounds, detection reagents (e.g., a buffer containing Emerald II: Galactor-Star as provided DiscoveRX) are added to the cells. The read-out (e.g., luminescence, or fluorescence) is detected using standard equipment.
# The detection reagent (9.6 μL, Buffer:Emerald II:Galactor-Star in a 19:5:1 ratio, i.e., 14.06 mL:3.7 mL:0.74 mL=18.5 mL) was then added to the agonist plates.
# human D2R/β-arrestin [3] = biological target: T1, human D2R/β-arrestin; assay: Gi/cAMP agonist assay (Lance Ultra cAMP, Forskolin); type: cell-based; conditions: CHO-K1 cell line expressing human D2R/β-arrestin
# Description: as §1, with “PE Lance Ultra cAMP kit (TRF0263)).” for “PathHunter® β-Arrestin Detecting Kit (DiscoveRX)).”, “Afterwards, cAMP inducing agents (e.g., Forskolin) are added to and incubated with” for “After incubation of”, “before” for “with the compounds,”, “cAMP antibody, such” for “buffer containing Emerald II: Galactor-Star”, “ULight-anti-cAMP solution)” for “provided DiscoveRX)”, “Read-out” for “The read-out”
# Compounds were pin-transferred (100 nL) to the cells, and incubated for 10 min. at 37° C. […] Eu-cAMP tracer solution (100, PerkinElmer, […] in 17.64 ml kit buffer) and ULight-anti-cAMP solution (100, 120 μL antibody in 17.88 ml kit buffer) was then added to each well.
# human D2R/β-arrestin [4] = biological target: T1, human D2R/β-arrestin; assay: cell-based; conditions: β-arrestin Antagonist
# Description: The detection reagents are then added, and the read-out is detected.
# Cells were prepared for assays by growing cultures for up to 2 weeks (from about 6-20 passages). A vial of frozen cells was thawed in a water bath held at 37° C. The cells were then transferred into a 50 ml tube with 10 ml growth media. The vial was rinsed with growth media and the contents transferred to the 50 ml tube. The 50 ml tube was centrifuged at 1200 rpm for 5 minutes at room temperature. […] When the cells reached about 90% confluence (approximately 3 days between passages), the cells were passaged and used for either the agonist or antagonist assays as described below.
# The cells were prepared for β-arrestin assays as described above. The assays were performed using a PathHunter® β-Arrestin Detecting Kit (DiscoveRX). The cells were grown on 225 mm dishes, then washed once with 1×PBS (Cellgro), followed by digestion with 2.5 ml 1× Detachment reagent (DRX 92-0009) for approximately 2 minutes.
# [5] = CHO-K1 cell line expressing human D2R/β-arrestin, quinpirole used as agonist
# T1 sequence (P14416 whole entry): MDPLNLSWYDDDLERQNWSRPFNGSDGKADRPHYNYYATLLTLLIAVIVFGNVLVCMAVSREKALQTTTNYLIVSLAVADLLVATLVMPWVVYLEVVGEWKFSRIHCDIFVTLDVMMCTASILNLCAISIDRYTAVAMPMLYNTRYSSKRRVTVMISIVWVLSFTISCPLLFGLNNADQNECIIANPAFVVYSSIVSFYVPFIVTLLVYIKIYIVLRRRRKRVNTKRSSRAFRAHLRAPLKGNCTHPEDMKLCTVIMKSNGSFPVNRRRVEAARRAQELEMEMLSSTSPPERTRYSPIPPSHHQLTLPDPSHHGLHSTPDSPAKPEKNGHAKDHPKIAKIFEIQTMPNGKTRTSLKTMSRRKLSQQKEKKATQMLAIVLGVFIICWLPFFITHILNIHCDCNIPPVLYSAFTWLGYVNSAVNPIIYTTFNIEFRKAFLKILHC
SMILES,IC50 (human D2R/β-arrestin [1]; [5]) [nM],EC50 (human D2R/β-arrestin [2]) [nM],EC50 (human D2R/β-arrestin [3]) [nM],IC50 (human D2R/β-arrestin [4]; [5]) [nM],IC50 (human D2R/β-arrestin [1]) [nM],IC50 (human D2R/β-arrestin [4]) [nM]
"Fc1ccccc1C(NCC1CCN(CCOc2ccccc2)CC1)c1ccc(Cl)cc1 (single isomer, unassigned) [Compound 81a, 1-(4-chlorophenyl)-1-(2-fluorophenyl)-N-((1-(2-phenoxyethyl)piperidin-4-yl)methyl)methanamine]",100 to 1000,> 30000,> 30000,100 to 1000,,
"Fc1ccc(F)c(OCCN2CCC(CNC(c3ccc(Cl)cc3)c3ccccn3)CC2)c1 (single isomer, unassigned) [Compound 89a, 1-(4-chlorophenyl)-N-((1-(2-(2,5-difluorophenoxy)ethyl)piperidin-4-yl)methyl)-1-(pyridin-2-yl)methanamine]",100 to 1000,> 30000,> 30000,100 to 1000,,
"Fc1ccc(F)c(OCCN2CCC(CNC(c3ccc(Cl)cc3)c3ccccn3)CC2)c1 (single isomer, unassigned) [Compound 89b, 1-(4-chlorophenyl)-N-((1-(2-(2,5-difluorophenoxy)ethyl)piperidin-4-yl)methyl)-1-(pyridin-2-yl)methanamine]",10000 to 30000,> 30000,100 to 1000,1000 to 10000,,
"CC(C1CCN(CCOc2ccccc2)CC1)N(C)C(c1ccc(Cl)cc1)c1ccccn1 (single isomer, unassigned) [Compound 97a, N-((4-chlorophenyl)(pyridin-2-yl)methyl)-N-methyl-1-(1-(2-phenoxyethyl)piperidin-4-yl)ethan-1-amine]",100 to 1000,> 30000,100 to 1000,1000 to 10000,,
"CC(C1CCN(CCOc2ccccc2)CC1)N(C)C(c1ccc(Cl)cc1)c1ccccn1 (single isomer, unassigned) [Compound 97c, N-((4-chlorophenyl)(pyridin-2-yl)methyl)-N-methyl-1-(1-(2-phenoxyethyl)piperidin-4-yl)ethan-1-amine]",< 100,> 30000,> 30000,< 100,,
"CC(C1CCN(CCOc2ccccc2)CC1)N(C)C(c1ccc(Cl)cc1)c1ccccn1 (single isomer, unassigned) [Compound 97d, N-((4-chlorophenyl)(pyridin-2-yl)methyl)-N-methyl-1-(1-(2-phenoxyethyl)piperidin-4-yl)ethan-1-amine]",100 to 1000,> 30000,> 30000,100 to 1000,,
"CC1(CNC(c2ccc(F)cc2)c2ccccn2)CCN(CCOc2ccccc2C(F)(F)F)CC1 (single isomer, unassigned) [Compound 101a, 1-(4-fluorophenyl)-N-((4-methyl-1-(2-(2-(trifluoromethyl)phenoxy)ethyl)piperidin-4-yl)methyl)-1-(pyridin-2-yl)methanamine]",100 to 1000,> 30000,> 30000,100 to 1000,,
"c1ccc(OCCN2CCC(CNC(c3ccc4c(c3)OCO4)c3ccccn3)CC2)cc1 (single isomer, unassigned) [Compound 102a, 1-(benzo[d][1,3]dioxol-5-yl)-N-((1-(2-phenoxyethyl)piperidin-4-yl)methyl)-1-(pyridin-2-yl)methanamine]",1000 to 10000,> 30000,> 30000,1000 to 10000,,
"CC(C)N(CC1CCN(CCOc2ccccc2)CC1)C(c1ccc(Cl)cc1)c1ccccn1 (single isomer, unassigned) [Compound 103a, N-((4-chlorophenyl)(pyridin-2-yl)methyl)-N-((1-(2-phenoxyethyl)piperidin-4-yl)methyl)propan-2-amine]",,> 30000,100 to 1000,,< 100,100 to 1000
"Clc1ccc(C(NCC2CCN(CCOc3ccccc3)CC2)c2ccccn2)cc1 (single isomer, unassigned) [Compound 114b, 1-(4-chlorophenyl)-N-((1-(2-phenoxyethyl)piperidin-4-yl)methyl)-1-(pyridin-2-yl)methanamine]",> 30000,> 30000,100 to 1000,100 to 1000,,
"FC(F)(F)CN(CC1CCN(CCOc2ccccc2)CC1)C(c1ccc(Cl)cc1)c1ccccn1 (single isomer, unassigned) [Compound 125a, N-((4-chlorophenyl)(pyridin-2-yl)methyl)-2,2,2-trifluoro-N-((1-(2-phenoxyethyl)piperidin-4-yl)methyl)ethanamine]",> 30000,> 30000,100 to 1000,1000 to 10000,,
"FC(F)(F)CN(CC1CCN(CCOc2ccccc2)CC1)C(c1ccc(Cl)cc1)c1ccccn1 (single isomer, unassigned) [Compound 125b, N-((4-chlorophenyl)(pyridin-2-yl)methyl)-2,2,2-trifluoro-N-((1-(2-phenoxyethyl)piperidin-4-yl)methyl)ethanamine]",1000 to 10000,> 30000,> 30000,100 to 1000,,
"CC(C)N(CC1CCN(CCOc2ccccc2F)CC1)C(c1ccc(Cl)cc1)c1ccccn1 (single isomer, unassigned) [Compound 133a, N-((4-chlorophenyl)(pyridin-2-yl)methyl)-N-((1-(2-(2-fluorophenoxy)ethyl)piperidin-4-yl)methyl)propan-2-amine]",< 100,> 30000,> 30000,< 100,,

# Further lines, with some results ahead:
IC50 (human D2R/β-arrestin [1]; [5]) [nM],EC50 (human D2R/β-arrestin [2]) [nM],EC50 (human D2R/β-arrestin [3]) [nM],IC50 (human D2R/β-arrestin [4]; [5]) [nM],SMILES,IC50 (human D2R/β-arrestin [1]) [nM],IC50 (human D2R/β-arrestin [4]) [nM]
> 30000,> 30000,100 to 1000,1000 to 10000,"O=C(NC(c1ccc(Cl)cc1)c1ccncc1F)C1CCN(CCOc2ccccc2F)CC1 (single isomer, unassigned) [Compound 91a, N-((4-chlorophenyl)(3-fluoropyridin-4-yl)methyl)-1-(2-(2-fluorophenoxy)ethyl)piperidine-4-carboxamide]",,
100 to 1000,> 30000,100 to 1000,100 to 1000,"O=C(NC(c1ccc(Cl)cc1)c1ccc(F)cn1)C1CCN(CCOc2ccccc2F)CC1 (single isomer, unassigned) [Compound 92a, N-((4-chlorophenyl)(5-fluoropyridin-2-yl)methyl)-1-(2-(2-fluorophenoxy)ethyl)piperidine-4-carboxamide]",,
1000 to 10000,> 30000,10000 to 30000,1000 to 10000,"O=C(NC(c1ccc(Cl)cc1)c1ccc(F)cn1)C1CCN(CCOc2ccccc2F)CC1 (single isomer, unassigned) [Compound 92b, N-((4-chlorophenyl)(5-fluoropyridin-2-yl)methyl)-1-(2-(2-fluorophenoxy)ethyl)piperidine-4-carboxamide]",,
100 to 1000,> 30000,10000 to 30000,1000 to 10000,"O=C(NC(c1cccc(OC(F)(F)F)c1)c1ccccn1)C1CCN(CCOc2ccccc2F)CC1 (single isomer, unassigned) [Compound 93a, 1-(2-(2-fluorophenoxy)ethyl)-N-(pyridin-2-yl(3-(trifluoromethoxy)phenyl)methyl)piperidine-4-carboxamide]",,
> 30000,> 30000,100 to 1000,1000 to 10000,"O=C(NC(c1ccc(Cl)cc1)c1ccccn1)C1CCN(CCOc2ccc(F)cc2F)CC1 (single isomer, unassigned) [Compound 115a, N-((4-chlorophenyl)(pyridin-2-yl)methyl)-1-(2-(2,4-difluorophenoxy)ethyl)piperidine-4-carboxamide]",,
100 to 1000,> 30000,> 30000,100 to 1000,"O=C(NC(c1ccc(Cl)cc1)c1ccccn1)C1CCN(CCOc2ccc(F)cc2F)CC1 (single isomer, unassigned) [Compound 115b, N-((4-chlorophenyl)(pyridin-2-yl)methyl)-1-(2-(2,4-difluorophenoxy)ethyl)piperidine-4-carboxamide]",,
100 to 1000,> 30000,> 30000,1000 to 10000,"O=C(NC(c1ccc2c(c1)OC(F)(F)O2)c1ccccn1)C1CCN(CCOc2ccc(F)cc2F)CC1 (single isomer, unassigned) [Compound 130a, N-((2,2-difluorobenzo[d][1,3]dioxol-5-yl)(pyridin-2-yl)methyl)-1-(2-(2,4-difluorophenoxy)ethyl)piperidine-4-carboxamide]",,
